Holding throughout (format): cell-based, human
The test system of one assay is p53. The assay is described as follows: p53 protein level by Western blotting. The following applies: 24 h. The procedure: Fig. 5 Effects of DL-TBOA on cell death and survival parameters after chemotherapy treatment. Parental and drug-resistant HCT116 (a) and LoVo (b) cell lines were exposed to SN38 (0.8 μM) or oxaliplatin (20 μM), alone or in combination with 350 μM DL-TBOA as indicated, for 24 h. Equal amounts of protein per lane were separated by SDS-PAGE and the protein level of p53 was determined by Western blotting. Top: Representative Western blots, with p150 as loading control. Bottom: Densitometric quantifications based on 3 independent experiments per condition. Data are means with S.E.M. error bars of 3 independent experiments. *) p < 0.05, **) p < 0.01, ***) p < 0.001,****) p < 0.0001 compared to the control group without drug or TBOA treatment; Two-way ANOVA with Tukey post-test
(§1) Cells were grown to a confluence of 60-80 % and treated with chemotherapy, siRNA- or plasmid transfection as indicated. Cells were washed once in PBS, lysed in lysis buffer (1 % SDS, 0.1 M Tris pH 7.5, and 1 mM Na3VO4), sonicated, and protein content determined (DC assay, BioRad). Lysates were mixed 2:1with NuPage LDS sample buffer (Invitrogen). SDS-PAGE was carried out in NOVEX chambers with NuPAGE 10 % Bis-Tris gels under reducing and denaturing conditions, using BenchMark protein ladder (Invitrogen), and 15 μg protein per lane. Proteins were transferred to PVDF membranes, which were Ponceau S stained, blocked for 1 h at 37 °C in 5 % nonfat dry milk in TBST (0.01 M Tris/HCl, 0.15 M NaCl, 0.1 % Tween 20, pH 7.4), incubated overnight at 4 °C with primary antibodies diluted in blocking buffer, washed in TBST, incubated with secondary antibodies for 1 h, washed in TBST, and developed using BCIP/NBT (KPL). Bands were scanned and quantified using UN-SCAN-IT (Silk Scientific).

The test system of assay [1] is cellular reduced glutathione (GSH). The experiment in a line: Cellular GSH level. The following applies: parental HCT116 cells; 24 h; 0.8 μM SN38 or 20 μM oxaliplatin. How it is done:
Fig. 4 Effect of glutamate transporter inhibition on cellular GSH levels. a Basal intracellular GSH levels were measured as described in Materials and Methods, and normalized to total protein in the samples. b-c Normalized basal GSH levels under control conditions, in HCT116 and LoVo parental and resistant cells after 24 h of treatment with 0.8 μM SN38 or 20 μM oxaliplatin, in absence or presence of DL-TBOA (350 μM) as shown. * p < 0.05 vs untreated control group (n = 5). One-way ANOVA followed by Dunnett post-test
Cells were seeded in 24-well plates (10^4 cells per well), treated the next day with chemotherapy and/or DL-TBOA and incubated for 24 h. Medium was removed and cells were washed twice with ice-cold PBS, which was removed and 500 μl ice-cold 1 % Sulfosalicylic acid was added per well. Cells were incubated on ice for at least 10 min. After centrifugation (1 min, 15,000 g), 10 μl lysate was used to determine total GSx content. To measure GSSG content, 130 μl sample was mixed with 55 μl 0.2 M Tris (pH 9) and 5 μl 2-Vinylpyridine. Tubes were vortexed carefully and incubated for at least 1 h at room temperature. 10 μl of this mix was mixed first with 90 μl of water in a 96-well plate and then with a reaction mix (0.1 M sodium phosphate buffer pH 7.5 containing 1 mM EDTA, 10 mM NADPH, 10 mM DTNB and 0.05 μl Glutathione reductase, 2U/μl). Measurements were taken every 30 s for 10 min in an ELISA plate reader (Thermo Scientific MultiScan FC) at 405 nm absorbance. GSH values were obtained by subtraction of GSSG values from GSx values.

Assay [2] concerns parental and drug-resistant HCT116 and LoVo cell lines. The experiment in a line: MTT viability assay, HCT116 and LoVo cell lines. The following applies: Homo sapiens; parental HCT116 and LoVo; 48 h; 0.8 μM SN38 (highest dose tested); read-out: viable cells remaining. The procedure: Fig. 2 DL-TBOA augments SN38-induced death in SN38-resistant cells, but protects oxaliplatin-resistant cells from oxaliplatin-induced death. Parental and drug-resistant HCT116 and LoVo cell lines seeded in 96-well dishes were exposed to SN38 (0.1 or 0.8 μM) or oxaliplatin (0.8 or 20 μM), alone or in combination with 70 or 350 μM DL-TBOA as indicated, for 48 h. Viability was assessed by MTT assay. a-b Parental HCT116 cells, (c) SN38 resistant HCT116 cells, (d) Oxaliplatin-resistant HCT116 cells, (e-f) Parental LoVo cells, (g) SN38 resistant LoVo cells, (h) Oxaliplatin-resistant LoVo cells. Data are means with S.E.M. error bars of 3 independent experiments. *) p < 0.05, **) p < 0.01, ***) p < 0.001 compared to the control group without drug or TBOA treatment; #) p < 0.05 compared to controls without TBOA treatment. One-way ANOVA followed by Dunnett post-test
Cells were seeded at appropriate density (LoVo 10,000, and HCT116 5000 cells /100 μl) in growth medium in 96-well plates. Next day, cells were treated with inhibitors and/or chemotherapy in a total volume of 200 μl in growth medium and incubated for 48 h at 37 °C, 5 % CO2. The medium was replaced with 100 μl of 0.5 mg/ml 3-(4,5-dimethylthiazol-2-yl)-2,5-diphenyltetrazolium bromide (MTT) in growth medium. The reaction was stopped 1.5-2.5 h later by addition of 100 μl 20 % SDS in 0.02 M HCl, and incubation overnight to allow complete lysis of cells and formazan crystals. Absorbance was measured in an ELISA plate reader (Thermo Scientific MultiScan FC) at 550 nm. Data were background subtracted and % viability relative to controls calculated.

For assay [3], the system named is SLC1A1 localization in HCT116 cells. The experiment in a line: Immunofluorescence analysis of SLC1A1 subcellular localization. The following applies: parental HCT116 cells; 48 h; 0.8 μM SN38 or 20 μM oxaliplatin. How it is done:
Immunofluorescence analysis was carried out essentially as in [47]. Cells grown on glass coverslips were fixed in 2 % paraformaldehyde, washed in TBST, permeabilized for 5 min (0.5 % Triton X-100 in TBST), blocked for 30 min in 5 % BSA in TBST, incubated with SLC1A1 primary antibody in TBST + 1 % BSA overnight at 4 °C, washed in TBST, and with Rhodamine-phalloidin and AlexaFluor488 conjugated secondary antibody (1:600 in TBS + 1 % BSA) for 1 h, followed by washing in TBST, and mounting in N-propyl-galleate mounting medium (2 % w/v in PBS/glycerol). DAPI was added for 3 min following incubation with the secondary antibody. Cells were visualized using the 60X/1.35 NA objective of an Olympus Bx63 epifluorescence microscope. […] Overlays were carried out using Adobe Photoshop software. No other image adjustment was performed.

Another assay deals with p21^WAF1/Cip (p21). The assay is described as follows: p21 protein level by Western blotting. The following applies: 24 h. The procedure:
as §1
Supplementary file 12885_2015_1405_MOESM3_ESM.tiff: Additional file 3: Figure S3. Effects of DL-TBOA on cell death and survival parameters after chemotherapy treatment of HCT116 cells. Parental and drug-resistant HCT116 cell lines seeded in 6-well dishes were exposed to SN38 (0.8 μM) or oxaliplatin (20 μM), alone or in combination with 350 μM DL-TBOA as indicated, for 24 h. Equal amounts of protein per lane were separated by SDS-PAGE and the protein levels of p21, and PARP-1 (full-length and cleaved, the latter indicated by arrowheads) were determined by Western blotting. Top: Representative Western blots, with p150 as loading control. Bottom: Densitometric quantifications based on 3 independent experiments per condition. Data are means with S.E.M. error bars of 3 independent experiments. *) p < 0.05, **) p < 0.01, ***) p < 0.001,****) p < 0.0001 compared to the control group without drug or TBOA treatment; #) p < 0.05 compared to controls without TBOA treatment. Two-way ANOVA with Tukey post-test.

Another assay concerns PARP-1 cleavage. The assay is described as follows: PARP-1 cleavage by Western blotting. The following applies: HCT116 parental, oxaliplatin-resistant and SN38-resistant cells; 0.8 μM SN38, 24 h. How it is done:
as §1
Supplementary file 12885_2015_1405_MOESM3_ESM.tiff: Additional file 3: Figure S3. […] Equal amounts of protein per lane were separated by SDS-PAGE and the protein levels of p21, and PARP-1 (full-length and cleaved, the latter indicated by arrowheads) were determined by Western blotting. […] Bottom: Densitometric quantifications based on 3 independent experiments per condition. […]

[4] abbreviates: SN38-resistant HCT116 cells, 0.8 μM SN38 or 20 μM oxaliplatin.
Setting [5] is: oxaliplatin-resistant HCT116 cells, 0.8 μM SN38.
Setting [6] is: parental HCT116 cells, 0.8 μM SN38 or 20 μM oxaliplatin.

Structures are written as SMILES.

This is an account of results in paper PMC4445981, “The glutamate transport inhibitor DL-Threo-β-Benzyloxyaspartic acid (DL-TBOA) differentially affects SN38- and oxaliplatin-induced death of drug-resistant colorectal cancer cells” (BMC Cancer, 2015).

For the compound `CCc1c2c(nc3ccc(O)cc13)-c1cc3c(c(=O)n1C2)COC(=O)[C@]3(O)CC` [SN38, 7-ethyl-10-hydroxycamptothecin], the p53 protein level result in the assay on p53 (setting [4]) was “essentially no effect on p53 expression”; in the assay on p53 (setting [5]), “only SN38 induced p53 and p21 expression”; in the assay on p53 (setting [6]) it was “markedly induced”. Besides, in assay [1], the “effect on cellular GSH levels” value was “slightly increased GSH levels”. In addition, in assay [2], the viability at 0.8 µM is ~20%. The SLC1A1 subcellular localization entry in assay [3] is recorded as “marked shift in SLC1A1 localization towards the perinuclear/nuclear region”. Besides, the p21 protein level entry in the assay with p21^WAF1/Cip (p21) (setting [4]) was “modestly increased p21 expression”; in the assay on p21^WAF1/Cip (p21) (setting [5]), “only SN38 induced p53 and p21 expression”; in the assay on p21^WAF1/Cip (p21) (setting [6]), “markedly induced”. The PARP-1 cleavage entry with PARP-1 cleavage is “induced by SN38 in parental and oxaliplatin-resistant, yet not in SN38-resistant, cells”.
